Reference: ChEMBL document CHEMBL1148116, “Thorectandrols C, D, and E, new sesterterpenes from the marine sponge Thorectandra sp” (J Nat Prod, 2002)
Values after ≈ are worked out from the molar mass of the structure shown. Active and inactive are the calls of the source. The rule behind the calls is not given here.

Assays:
Assay type in all cases: functional, cell-based
OVCAR-3 [1] = experiment: Cytotoxicity against human OVCAR-3 cells at 100 ug/mL
MOLT-4 [2] = experiment: Cytotoxicity against human MOLT4 cells at 100 ug/mL
MCF7 [3] = experiment: Cytotoxicity against human MCF7 cells at 100 ug/mL
SNB-19 [4] = experiment: Cytotoxicity against human SNB19 cells at 100 ug/mL
COLO 205 [5] = experiment: Cytotoxicity against human COLO205 cells at 100 ug/mL
KM12 [6] = experiment: Cytotoxicity against human KM12 cells at 100 ug/mL
Malme-3M [7] = experiment: Cytotoxicity against human MALME-3M cells at 100 ug/mL
A549 [8] = experiment: Cytotoxicity against human A549 cells at 100 ug/mL
786-0 = experiment: Cytotoxicity against human 786-O cells at 100 ug/mL
IGROV-1 [9] = experiment: Cytotoxicity against human IGROV1 cells at 100 ug/mL
LOX IMVI [10] = experiment: Cytotoxicity against human LOXIMVI cells at 100 ug/mL
NCI-H460 [11] = experiment: Cytotoxicity against human H460 cells at 100 ug/mL
A549 [12] = experiment: Cytotoxicity against human A549 cells
COLO 205 [13] = experiment: Cytotoxicity against human COLO205 cells
[14] = Cytotoxicity against human 786-O cells; conditions: 786-0
MCF7 [15] = experiment: Cytotoxicity against human MCF7 cells
Malme-3M [16] = experiment: Cytotoxicity against human MALME-3M cells
IGROV-1 [17] = experiment: Cytotoxicity against human IGROV1 cells
SNB-19 [18] = experiment: Cytotoxicity against human SNB19 cells
OVCAR-3 [19] = experiment: Cytotoxicity against human OVCAR-3 cells
MOLT-4 [20] = experiment: Cytotoxicity against human MOLT4 cells
LOX IMVI [21] = experiment: Cytotoxicity against human LOXIMVI cells
NCI-H460 [22] = experiment: Cytotoxicity against human H460 cells
KM12 [23] = experiment: Cytotoxicity against human KM12 cells
[24] = Homo sapiens, MCF7, read-out: IC50

SMILES	Activity (OVCAR-3 [1])	Activity (MOLT-4 [2])	Activity (MCF7 [3])	Activity (SNB-19 [4])	Activity (COLO 205 [5])	Activity (KM12 [6])	Activity (Malme-3M [7])	Activity (A549 [8])	IC50 (A549 [12]) [mg/L]	IC50 (COLO 205 [13]) [mg/L]	IC50 [14] [mg/L]	IC50 (MCF7 [15]; [24]) [mg/L]	IC50 (Malme-3M [16]) [mg/L]	IC50 (IGROV-1 [17]) [mg/L]	IC50 (SNB-19 [18]) [mg/L]	IC50 (OVCAR-3 [19]) [mg/L]	IC50 (MOLT-4 [20]) [mg/L]	IC50 (LOX IMVI [21]) [mg/L]	IC50 (NCI-H460 [22]) [mg/L]	IC50 (KM12 [23]) [mg/L]	further results
CC(C)=CC1C/C(=C\CC/C(C)=C/CC/C(C)=C/CCC2=CC(=O)OC2)C(=O)O1 (stereo not given)	inactive	inactive	inactive	inactive	inactive	inactive	inactive	inactive	–	–	–	–	–	–	–	–	–	–	–	–	Activity (786-0): inactive; Activity (IGROV-1 [9]): inactive; Activity (LOX IMVI [10]): inactive; Activity (NCI-H460 [11]): inactive
C=C1CCC[C@H]2[C@](C)(CC/C(C)=C/C=C/C3=CC(=O)OC3O)[C@@H](C)CC[C@]12C (stereo not given in full) [PALAUOLIDE]	–	–	–	–	–	–	–	–	30 (≈ 78 µM)	23.6 (≈ 61.4 µM)	53 (≈ 138 µM)	> 100	37 (≈ 96.2 µM)	7.7 (≈ 20 µM)	52.1 (≈ 135 µM)	30 (≈ 78 µM)	43.5 (≈ 113 µM)	51.2 (≈ 133 µM)	10.1 (≈ 26.3 µM)	14.4 (≈ 37.4 µM)	–
C=C1CCC[C@H]2[C@](C)(CC/C(C)=C/C[C@@H](O)C3=CC(=O)OC3)[C@@H](C)[C@H](OC(C)=O)C[C@]12C [THORECTANDROL C]	–	–	–	–	–	–	–	–	30 (≈ 67.5 µM)	–	30 (≈ 67.5 µM)	–	30 (≈ 67.5 µM)	–	–	–	–	–	–	–	IC50 (MCF7 [15]; mcf7): Not Active; Activity (OVCAR-3 [19]): inactive; Activity (LOX IMVI [21]): inactive
C=C1CCC[C@H]2[C@](C)(CC/C(C)=C/C[C@@H](O)C3=CC(=O)OC3)[C@@H](C)[C@H](O)C[C@]12C	inactive	inactive	inactive	inactive	inactive	inactive	inactive	inactive	–	–	–	–	–	–	–	–	–	–	–	–	Activity (786-0): inactive; Activity (IGROV-1 [9]): inactive; Activity (LOX IMVI [10]): inactive; Activity (NCI-H460 [11]): inactive
C=C1CCC[C@@H]2[C@@](C)(CC/C(C)=C/C[C@@H](O)C3=CC(=O)OC3O)[C@@H](C)CC[C@@]12C (stereo not given in full) [PALAUOLOL]	–	–	–	–	–	–	–	–	> 100	1.1 (≈ 2.73 µM)	1.4 (≈ 3.48 µM)	7 (≈ 17.4 µM)	0.5 (≈ 1.24 µM)	1.5 (≈ 3.73 µM)	2.1 (≈ 5.22 µM)	2.2 (≈ 5.46 µM)	0.6 (≈ 1.49 µM)	2.4 (≈ 5.96 µM)	1.3 (≈ 3.23 µM)	1.8 (≈ 4.47 µM)	–
CC(C)=CC1C/C(=C/CC/C(C)=C/CC/C(C)=C/C[C@@H](O)C2=CC(=O)OC2)C(=O)O1 (stereo not given in full)	inactive	inactive	inactive	inactive	inactive	inactive	inactive	inactive	–	–	–	–	–	–	–	–	–	–	–	–	Activity (786-0): inactive; Activity (IGROV-1 [9]): inactive; Activity (LOX IMVI [10]): inactive; Activity (NCI-H460 [11]): inactive
C=C1CCC[C@H]2[C@](C)(CC/C(C)=C/C[C@H]3OC(=O)C=C3CO)[C@@H](C)CC[C@]12C [THORECTANDROL A]	–	–	–	–	–	–	–	–	35 (≈ 90.5 µM)	37 (≈ 95.7 µM)	30 (≈ 77.6 µM)	40 (≈ 103 µM)	40 (≈ 103 µM)	31 (≈ 80.2 µM)	40 (≈ 103 µM)	35 (≈ 90.5 µM)	32 (≈ 82.8 µM)	35 (≈ 90.5 µM)	35 (≈ 90.5 µM)	40 (≈ 103 µM)	–
C=C1CCC[C@H]2[C@@](CC/C(C)=C/C[C@H]3OC(=O)CC3CO)(COC(C)=O)[C@@H](C)CC[C@]12C (stereo not given in full) [THORECTANDROL B]	–	–	–	–	–	–	–	–	35 (≈ 78.4 µM)	23.6 (≈ 52.8 µM)	35 (≈ 78.4 µM)	30 (≈ 67.2 µM)	30 (≈ 67.2 µM)	> 100	35 (≈ 78.4 µM)	70 (≈ 157 µM)	19 (≈ 42.5 µM)	100 (≈ 224 µM)	96 (≈ 215 µM)	94 (≈ 210 µM)	–
